Where two headings read alike, the source gives them in different places.
Experiments:
[1] = tested on: strophantin-induced arrhythmia; format: in vivo, guinea pig
arterial pressure [2] = experiment: Hypotensive activity in anesthetized cats, i.v.; format: in vivo, cat; details: for arterial pressure: control 163±8
in vivo = details: mouse
Source text: LD50 values were estimated by using the Litchfield-Wilckoxon method.

heart rate = experiment: Heart rate in anesthetized rats, i.v.; format: in vivo, rat; details: for heart rate: control 271±7
Method: β-adrenoceptor blocking activity of the active principle of the pharmaceutical preparation of the invention was studied. […]. The test substances were injected to several groups of animals (6-10 individuals each) in the graded doses of 0.001, 0.0025, 0.01, 0.025, and 0.1 mg/kg.
From the dosage of […] it gave rise to the lowering of arterial pressure (from 159±9 in the control to 141±11, 127±10 and 123 ±11 mm Hg in the dosages of 0.01, 0.025 and 0.1 mg/kg). From the dosage of 0.0025 mg/kg the compound of the invention gave rise to the dose-related suppression of the isadrin-initiated depressor effect (by 12,63, 82 and 90% in doses of 0.0025, 0.01, 0.025 and 0.1 mg/kg) and, starting from the dosage of […], a positive chronotropic (by 25, 46 and 78% in doses of 0.01, 0.025 said 0.1 mg/kg, respectively) effect.

β-adrenoceptor = β-adrenoceptor blocking effect duration; details: in vivo
β2-adrenoceptor = target: T1, β2-adrenoceptor (Rattus norvegicus, UniProt P10608); experiment: Inhibition of isadrin's depressor effect, i.v., anesthetized rats; format: in vivo
T1 construct: positive chronotropic and depressor effects in the anesthetized rats; from tissue; host or cells: whole living rat (blood pressure response to isadrin); endogenous receptor

arterial pressure [3] = experiment: Antihypertensive effect in rats with spontaneous hypertension; format: in vivo, rat
myocardium necrosis = experiment: Myocardium necrosis in rats with labile coronary occlusion; format: in vivo, rat; details: for Mass and size myocardium (% to the total area of aortic ventricle): control 31.2 ± 1.96; for Area of myocardium necrosis (% to the total area of aortic ventricle): control 33.5 ± 2.5

T1 sequence (P10608 whole entry): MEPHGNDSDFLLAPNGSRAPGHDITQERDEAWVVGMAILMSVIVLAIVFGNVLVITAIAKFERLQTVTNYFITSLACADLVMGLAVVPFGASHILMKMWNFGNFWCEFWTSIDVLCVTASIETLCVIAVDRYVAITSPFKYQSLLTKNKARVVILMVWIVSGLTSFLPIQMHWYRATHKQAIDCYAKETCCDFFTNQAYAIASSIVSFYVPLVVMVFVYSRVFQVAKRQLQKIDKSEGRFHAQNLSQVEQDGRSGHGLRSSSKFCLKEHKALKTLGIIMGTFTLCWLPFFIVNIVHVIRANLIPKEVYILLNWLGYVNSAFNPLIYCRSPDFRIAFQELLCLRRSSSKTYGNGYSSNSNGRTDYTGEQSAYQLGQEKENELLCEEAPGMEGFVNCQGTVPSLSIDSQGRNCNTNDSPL

## Cc1noc(COc2ccccc2OCC(O)CNC(C)(C)C)n1.Cl (centres unmarked) [Compound of the invention, 3-methyl-5-[2-(3-tert.butylamino-2-hydroxypropoxy)phenoxymethyl]-1,2,4-oxadiazole hydrochloride]
[1]; 0.1 mg/kg i.v.
  Arrhythmogenic dose of strophantin as compared with control: extrasystoles: 118%
  Dose of strophantin as compared with control: ventricular fibrillation: 115.6%
  Lethal dose of strophantin as compared with control: animal death: 118.7%
[1]; 0.3 mg/kg i.v.
  Arrhythmogenic dose of strophantin as compared with control: extrasystoles: 125.9%
  Dose of strophantin as compared with control: ventricular fibrillation: 113.1%
  Lethal dose of strophantin as compared with control: animal death: 123.5%
[1]; 1.0 mg/kg i.v.
  Arrhythmogenic dose of strophantin as compared with control: extrasystoles: 148.2%
  Dose of strophantin as compared with control: ventricular fibrillation: 147.2%
  Lethal dose of strophantin as compared with control: animal death: 142.6%
[1]; 3.0 mg/kg i.v.
  Arrhythmogenic dose of strophantin as compared with control: extrasystoles: 157.0%
  Dose of strophantin as compared with control: ventricular fibrillation: 170.2%
  Lethal dose of strophantin as compared with control: animal death: 150.7%
[1]; 0.1-3.0 mg/kg i.v.
  antiarrhythmic activity and efficacy: superior to propranolol, oxprenolol and labetalol
Arterial pressure [2]; 0.02 mg/kg
  arterial pressure: 147±12 mm Hg
Arterial pressure [2]; 0.1 mg/kg
  arterial pressure: 132±5 mm Hg
Arterial pressure [2]; 0.3 mg/kg
  arterial pressure: 96±7 mm Hg
Arterial pressure [2]; 1.0 mg/kg
  arterial pressure: 90±7 mm Hg
Arterial pressure [2]; 5.0 mg/kg
  arterial pressure: 67±7 mm Hg
Arterial pressure [2]; Felis catus, iv, anesthetized cats, read-out: Dose resulting in lowering of arterial pressure by 20%, ED20
  ED20: 0.11 ± 0.01 mg/kg
Arterial pressure [2]; Felis catus, iv, cats, read-out: dosage from which arterial pressure lowered
  minimal effective dose: 0.02 mg/kg
Arterial pressure [2]; anesthetized normotensive cats, i.v.
  hypotensive effect compared with labetalol: stronger hypotensive effect as compared with labetalol
Arterial pressure [2]; comparison of ED20
  hypotensive activity, times as high as labetalol: 9 times
Arterial pressure [2]; in vivo
  hypotensive activity and duration compared with labetalol: superior to labetalol by hypotensive activity and duration of such effect
Arterial pressure [2]; large dosages
  duration of hypotensive effect: 3 to 4 h
Arterial pressure [2]; small dosages
  duration of hypotensive effect: 0.083 to 0.5 h
In vivo; iv
  LD50 at 72 h: 72.5 mg/kg
In vivo; po
  LD50 at 72 h: 600 mg/kg
Heart rate; 0.0025 mg/kg i.v.
  heart rate: 249±11 beat/min.
Heart rate; 0.01 mg/kg i.v.
  heart rate: 238±16 beat/min.
Heart rate; 0.025 mg/kg i.v.
  heart rate: 204±14 beat/min.
Heart rate; 0.1 mg/kg i.v.
  heart rate: 181±14 beat/min.
Heart rate; Rattus norvegicus, iv, read-out: dosage from which heart rate decreased
  minimal effective dose: 0.0025 mg/kg
β-adrenoceptor
  β-adrenoceptor blocking effect duration: somewhat superior to propranolol and oxprenolol
β2-adrenoceptor; 0.025 mg/kg i.v.
  suppression of the isadrin-initiated depressor effect: 82%
β2-adrenoceptor; 0.1 mg/kg i.v.
  suppression of the isadrin-initiated depressor effect: 90%
β2-adrenoceptor; comparison of ED50, rats i.v.
  β2-adrenoceptor blocking activity, times as high as labetalol: 412 times
  β2-adrenoceptor blocking activity, times as high as oxprenolol: 4 times
  β2-adrenoceptor blocking activity, times as high as pindolol: 2 times
  β2-adrenoceptor blocking activity, times as high as propranolol: 11 times
β2-adrenoceptor; i.v.
  dosage from which isadrin depressor effect suppressed: 0.0025 mg/kg
β2-adrenoceptor; rat, iv, read-out: Dosage inhibiting isadrin's depressor effect by 50%, ED50
  ED50: 0.008 ± 0.0007 mg/kg
Arterial pressure [3]
  hypotensive and antihypertensive properties: shows hypotensive and antihypertensive properties
Myocardium necrosis; 1 mg/kg
  Mass and size myocardium (% to the total area of aortic ventricle): 31.5%
  Area of myocardium necrosis (% to the total area of aortic ventricle): 30%
Myocardium necrosis; 5 mg/kg i.v.
  aortic ventricle necrosis in mass and size: decreasing in the aortic ventricle necrosis in mass and size
Myocardium necrosis; 5 mg/kg, P < 0.05
  Mass and size myocardium (% to the total area of aortic ventricle): 23.6 ± 3.2%
  Area of myocardium necrosis (% to the total area of aortic ventricle): 24.3 ± 3.4%

— US5326774A, “Pharmaceutical preparation of antihypertensive, antianginal, antiarrhythmic and antiglaucomic action” (priority 1992, dated 1994)
